From patent US20050169914A1, “Novel functions for decay accelerating factor (DAF) in inflammation” (priority 2003, published 2005)
Where no end group is shown, it is not given here. The star is where a group is joined. Biotin = O=C1N[C@H]2[C@H](CS[C@H]2CCCCC(=O)*)N1

What was measured:
[1] = tested on: PMN transmigration across epithelial monolayer; assay: Kinetic PMN transmigration assay with DAF mimetic peptides; type: cell-based, human; details: for rank order of potency in kinetic PMN transmigration assay: compared to no peptide controls
Procedure: Transmigration assay. PMN transmigration assays were performed as previously described (Nicholson-Weller et al., 1994, J. Lab. Clin. Med. 123: 485-91). All epithelial experiments were performed in the physiologically-relevant basolateral-to-apical direction (i.e. inverted monolayers), unless otherwise indicated, and all HMVEC transmigration studies were performed in the apical-to-basolateral direction. Briefly, PMN (1×10^6) were added to the upper chambers of transwell inserts in which T84, KB or Caco2 cell monolayers, as indicated, were plated on the opposing side. A chemotactic gradient was established by adding n-formyl-methionyl-leucyl-phenylalanine (fMLP) to the lower chambers (1 μM for Caco2 and T84 epithelia and 10 nM for KB cells and HMVEC). PMN transmigration was carried out at 37° C. for 1 hour with KB and HMVEC monolayers and 2 hrs for T84 monolayers. Transmigrated PMN were quantified by assaying for the PMN azurophilic marker myeloperoxidase (MPO), as previously described (Lisanti et al., 1990, J. Memb. Biol. 113: 155-167). Briefly, transmigrated PMN were lysed by the addition of Triton X-100 to a final concentration 0.5%. The samples were acidified with citrate buffer (final concentration 100 mM; pH 4.2). An aliquot of sample (70 μl) was added to an equal volume of ABTS solution (1 mM ABTS (2.2′-Azino-bis(3-ethylbenzo-thiazoline-6-sulfonic acid), 0.03% H2O2, 100 mM sodium citrate buffer; pH 4.2) in a 96-well plate. The resulting color was quantitated on a plate reader at 405 nm. For kinetic transmigration and post-transmigration adhesion assays, monolayers were removed at the desired time point and placed in a new 24-well plate with HBSS and spun at 50×g for 5 min to dislodge PMN adherent to the monolayer (Liu et al., 2001, J. Biol. Chem. 276: 40156-66). PMN were quantified by MPO assay as stated above. Where indicated, polyclonal DAF antisera (a kind gift from Dr. B. Paul Morgan, University of Wales) or control polyclonal platelet-endothelial cell adhesion (PE-CAM, a kind gift from Dr. Joyce Bischoff, Children's Hospital and Harvard Medical School) antisera were used to assess transmigration.
Phage panning of OE-1. The OE-1 binding epitope was analyzed using phage display (Burritt et al., 1998, J. Biol. Chem. 273:24847-52). Briefly, sepharose-coupled OE-1 was incubated with 20-μL aliquots of the random 9-mer LL9 phage library (˜5×10^10 phage) in 1 mL HBSS containing 0.1% bovine serum albumin (phage buffer) for 2 hours at 4° C. or for 1 hour at 20° C. in a 1.5-ml microcentrifuge tube as described previously (Mazzucchelli et al., 1999, Blood 93: 1738-48). Antibody complexes were then washed five times with phage buffer and bound phage were eluted for 5 minutes in 2 mL of 0.1M glycine (pH 2.2) followed by addition of phage buffer containing 0.5% Tween 20 to the remaining cell pellet. After neutralization with Tris buffer pH 8.1, the titer of phage was determined in each fraction by plaque assay according to standard procedures. Phage elutes were then amplified in “starved” K91 E. coli on solid LB agar containing 75 μg/mL kanamycin, purified by precipitation with polyethylene glycol, and resuspended in 600 μL NaCl/HEPES buffer. An aliquot (20 μL) of purified phage was subsequently re-applied to a new aliquot of sepharose-coupled OE-1 for a total of three affinity purification and two amplification steps. Individual phage clones were then isolated, amplified, and the random peptide sequences were deduced after sequencing the unique nucleotide region of the pIII protein. As a control for OE-1-specific selection, parallel phage affinity purification steps were carried out in a 1.5-mL microcentrifuge tube in the absence of OE-1, and a sample of the recovered phage was analyzed by sequencing of the DNA insert. […]

surface of intact PMN = assay: Binding of biotinylated peptide to intact PMN (rhodamine-streptavidin fluorescence); parameters: species or system human; details: peptide 10 μg/ml, 4° C., 1 hr
Procedure: In subsets of experiments, peptides were biotinylated (sulfo-NHS-Biotin, Pierce, Rockford, Ill.), purified by reversed phase HPLC, and tested for binding to PMN. Briefly, PMN (10^7 PMN in 1 ml) were incubated with biotinylated peptide DAF peptide or control peptide (each at 10 μg/ml) at 4° C. for 1 hr. PMN were washed three times in HBSS, and incubated with rhodamine-labeled steptavidin (Roche Diagnostics, Indianapolis, Ind.). Samples were aliquoted on a 96 well plate and fluorescence intensity (excitation, 550 nm; emission, 580 nm), expressed as relative fluorescence units (RFU) was measured on a fluorescent plate reader (Cytofluor™2300, Millipore Inc., Bedford, Mass.).

[2] = tested on: OE-1 mAb binding to intact epithelial cell surface protein; assay: Peptide blocking of OE-1 binding, cell surface ELISA on intact T84 cells; details: concentration-dependent
[3] = tested on: OE-1 mAb binding to denatured protein; assay: Peptide blocking of OE-1 binding, western blot of T84 epithelial lysates; details: concentration-dependent
Procedure: Immunoblotting experiments. Indicated cells were grown to confluency on 100 mm plastic Petri dishes. The monolayers were lysed for 10 min in 1 ml lysis buffer (150 mM NaCl, 25 mM Tris, pH 8.0, 5 mM EDTA, 2% n-octylglucoside, and 10% mammalian tissue protease inhibitor cocktail; Sigma, St. Louis, Mo.), scraped and collected into microfuge tubes. After spinning at 14,000×g to remove cell debris, the pellet was discarded. Proteins were solublized in non-reducing Laemmli sample buffer and heated to 100° C. for 5 minutes. Samples were resolved on a 10% polyacrylamide gel and transferred to nitrocellulose membranes. The membranes were blocked 1 hr at room temperature in PBS supplemented with 0.2% Tween-20 (PBS-T) and 4% BSA. […] The wash was repeated and proteins were detected by enhanced chemiluminescence.
Phage panning of OE-1. The OE-1 binding epitope was analyzed using phage display (Burritt et al., 1998, J. Biol. Chem. 273:24847-52). […] After neutralization with Tris buffer pH 8.1, the titer of phage was determined in each fraction by plaque assay according to standard procedures. […] As a control for OE-1-specific selection, parallel phage affinity purification steps were carried out in a 1.5-mL microcentrifuge tube in the absence of OE-1, and a sample of the recovered phage was analyzed by sequencing of the DNA insert. […]

[4] = tested on: PMN transmigration across Caco2 monolayers; assay: Kinetic PMN transmigration across DAF-depleted Caco2 monolayers; type: cell-based, human
Procedure: Transmigration assay. PMN transmigration assays were performed as previously described (Nicholson-Weller et al., 1994, J. Lab. Clin. Med. 123: 485-91). All epithelial experiments were performed in the physiologically-relevant basolateral-to-apical direction (i.e. inverted monolayers), unless otherwise indicated, and all HMVEC transmigration studies were performed in the apical-to-basolateral direction. Briefly, PMN (1×10^6) were added to the upper chambers of transwell inserts in which T84, KB or Caco2 cell monolayers, as indicated, were plated on the opposing side. […] Transmigrated PMN were quantified by assaying for the PMN azurophilic marker myeloperoxidase (MPO), as previously described (Lisanti et al., 1990, J. Memb. Biol. 113: 155-167). […] An aliquot of sample (70 μl) was added to an equal volume of ABTS solution (1 mM ABTS (2.2′-Azino-bis(3-ethylbenzo-thiazoline-6-sulfonic acid), 0.03% H2O2, 100 mM sodium citrate buffer; pH 4.2) in a 96-well plate. The resulting color was quantitated on a plate reader at 405 nm. For kinetic transmigration and post-transmigration adhesion assays, monolayers were removed at the desired time point and placed in a new 24-well plate with HBSS and spun at 50×g for 5 min to dislodge PMN adherent to the monolayer (Liu et al., 2001, J. Biol. Chem. 276: 40156-66). PMN were quantified by MPO assay as stated above. […]

surface expressed DAF = assay: DAF suppression in Caco2 cells (immunoprecipitation of surface biotinylated protein); type: cell-based, human; details: Caco2, relative to oligonucleotide controls, n=3
Procedure: DAF suppression studies. Caco2 cells were chosen for these experiments because they are more easily transfected than T84 cells. Confluent Caco2 monolayers were dislodged from T175 flasks with trypsin. Cells were washed once in serum-free DMEM. To 100 μl serum free media, 10 μl DAF siRNA ribonucleotide (20 μM each of sense 5′-[…]dTdT-3′ (SEQ ID NO: 31) and antisense 3′-dTd[…]-5′ (SEQ ID NO: 32), synthesized by Xeragon, Inc., Germantown, Md.) or 10 μl phosphorothioate derivatives of DAF antisense oligonucleotide (20 μM; 5′-[…]-3′ (SEQ ID NO: 33), synthesized by Oligo's Etc., Wilsonville, Oreg.) was added. In both cases, a control oligonucleotide (5′-ATG GAG GGC GCC GGC-3′, SEQ ID NO: 34) was used in parallel. To these solutions 10 μl Superfect transfection reagent (Qiagen, Valencia, Calif.) was added. The tubes were vortexed and incubated at room temperature for 10 min to allow transfection complexes formation. Following this incubation, 400 μl of serum containing media was added to the complexes, followed by 800 μl of cell suspension. […]
As a third approach, antisense oligonucleotides and siRNA technologies were utilized to diminish surface expressed DAF and examined the kinetics of PMN migration across such monolayers of epithelia. […] In panels B and C, the influence of siRNA (diamonds), antisense oligonucleotide (squares) on the kinetics of transmigration was assessed. […]

Substance: AVAHWYRSG [Peptide 1]
- rank order of potency in kinetic PMN transmigration assay ([1]; 1 mM final concentration): Wild-type>Peptide 2=Peptide 1>Peptide 3

Substance: Biotin-EVEHWYRSG
- fluorescence intensity (binding to surface of intact PMN) (surface of intact PMN): 2,188±383 RFU

Substance: EVEHAYRSG [Peptide 2]
- rank order of potency in kinetic PMN transmigration assay ([1]; 1 mM final concentration): Wild-type>Peptide 2=Peptide 1>Peptide 3

Substance: EVEHWARSG [Peptide 3]
- rank order of potency in kinetic PMN transmigration assay ([1]; 1 mM final concentration): Wild-type>Peptide 2=Peptide 1>Peptide 3

Substance: EVEHWYASG [Peptide 4]
- effect on PMN transmigration relative to no peptide controls ([1]; 1 mM final concentration): appeared to enhance PMN transmigration

Substance: EVEHWYRSG
- rank order of potency in kinetic PMN transmigration assay ([1]; 1 mM final concentration): Wild-type>Peptide 2=Peptide 1>Peptide 3
- apical accumulation of PMN ([1]; PMN and epithelial pre-exposure to increasing peptide concentrations, p<0.025): increased apical accumulation of PMN
- PMN transmigration ([1]; PMN and epithelial pre-exposure to increasing peptide concentrations, p<0.05): diminished PMN transmigration
- blocking of OE-1 binding to intact epithelial cell surface protein [2]: blocked OE-1 binding
- blocking of OE-1 binding to denatured protein [3]: blocked OE-1 binding

Substance: SPLAQAVRSSSR [scrambled peptide, scrambled control peptide, reference compound]
- blocking of OE-1 binding to intact epithelial cell surface protein [2]: but not a scrambled peptide

Substance: siRNA: DAF siRNA ribonucleotide, sense 5′-AAUUCCUGGCGAGAAGGACUCdTdT-3′, antisense 3′-dTdTUUAAGGACCGCUCUUCCUGAG-5′ (sense AAUUCCUGGCGAGAAGGACUCNN; antisense NNUUAAGGACCGCUCUUCCUGAG; chemistry not fully specified; one strand is listed 3' to 5')
- PMN transmigration across treated cells ([4]; Caco2, relative to mock or oligonucleotide control, p<0.025): significantly diminished
- apical PMN in DAF-depleted epithelia ([4]; Caco2, p<0.05 by ANOVA): significant increase over time
- decrease in surface expressed DAF (surface expressed DAF): 63±12%
